In general, Kd refers to the free concentration of one partner at which half of the binding sites on the other are occupied at equilibrium, for simple one-to-one binding.

Sequence of human TYK2 (JH2domain-pseudokinase) (P29597 556-888): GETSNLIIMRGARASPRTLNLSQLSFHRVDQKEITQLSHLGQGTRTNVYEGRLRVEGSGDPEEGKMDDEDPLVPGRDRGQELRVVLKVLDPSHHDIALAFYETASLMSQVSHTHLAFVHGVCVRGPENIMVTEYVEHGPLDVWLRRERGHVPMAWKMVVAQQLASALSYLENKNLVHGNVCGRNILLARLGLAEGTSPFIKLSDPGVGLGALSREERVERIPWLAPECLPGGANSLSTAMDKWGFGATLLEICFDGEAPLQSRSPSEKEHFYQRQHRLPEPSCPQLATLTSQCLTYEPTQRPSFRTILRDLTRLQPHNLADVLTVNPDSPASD

This assay addresses human TYK2 (JH2domain-pseudokinase) (Homo sapiens (Human), UniProt P29597). Kind of assay: TYK2 JH2 Domain Binding Assay (KINOMEscan). Conditions: 11-point 3-fold dilution, top concentration 30,000 nM, duplicate; read-out: hTYK2_JH2_Binding (Kd; nM). The method, then: Binding constants for compounds of the present invention against the JH2 domain were determined by the following protocol for a KINOMEscan® assay (DiscoveRx). A fusion protein of a partial length construct of human TYK2 (JH2domain-pseudokinase) (amino acids G556 to D888 based on reference sequence NP_003322.3) and the DNA binding domain of NFkB was expressed in transiently transfected HEK293 cells. From these HEK 293 cells, extracts were prepared in M-PER extraction buffer (Pierce) in the presence of Protease Inhibitor Cocktail Complete (Roche) and Phosphatase Inhibitor Cocktail Set II (Merck) per manufacturers' instructions. The TYK2(JH2domain-pseudokinase) fusion protein was labeled with a chimeric double-stranded DNA tag containing the NFkB binding site (5′-[…]-3′) fused to an amplicon for qPCR readout, which was added directly to the expression extract (the final concentration of DNA-tag in the binding reaction is 0.1 nM).
The liganded beads were blocked with excess biotin and washed with blocking buffer (SeaBlock (Pierce), 1% BSA, 0.05% Tween 20, 1 mM DTT) to remove unbound ligand and to reduce nonspecific binding.
Extracts were loaded with DNA-tag and diluted into the binding reaction in a two step process. First extracts were diluted 1:100 in 1× binding buffer (PBS/0.05% Tween 20/10 mM DTT/0.1% BSA/2 μg/ml sonicated salmon sperm DNA) containing 10 nM DNA-tag. This dilution was allowed to equilibrate at room temperature for 15 minutes and then subsequently diluted 1:100 in 1× binding buffer. […] Kds were determined using an 11-point 3-fold compound dilution series with three DMSO control points. […] The compounds were then diluted directly into the assays such that the final concentration of DMSO was 0.9%. All reactions performed in polypropylene 384-well plates. Each was a final volume of 0.02 mL. Assays were incubated with shaking for 1 hour at room temperature. Then the beads were pelleted and washed with wash buffer (lx PBS, 0.05% Tween 20) to remove displaced kinase and test compound. […] The qPCR protocol consisted of a 10 minute hot start at 95° C., followed by 35 cycles of 95° C. for 15 seconds, 60° C. for 1 minute.
Kds were determined using an 11-point 3-fold compound dilution series with three DMSO control points. […] The compounds were then diluted directly into the assays such that the final concentration of DMSO was 0.9%. The Kds were determined using a compound top concentration of 30,000 nM. Kd measurements were performed in duplicate.
Binding constants (Kds) were calculated with a standard dose-response curve using the Hill equation: […]
The Hill Slope was set to −1.
Take `CNc1cc(Nc2cccn([C@H]3CC[C@@H]3O)c2=O)nc2c(C(=O)N[C@H]3CCC[C@H](OC)C3)cnn12` [Compound I-97, 5-((1-((1S,2S)-2-Hydroxycyclobutyl)-2-oxo-1,2-dihydropyridin-3-yl)amino)-N-((1S,3S)-3-methoxycyclohexyl)-7-(methylamino)pyrazolo[1,5-a]pyrimidine-3-carboxamide]: the Kd lay in the range of 1 to 10 nM.

In the case of `CNc1cc(Nc2cccn([C@@H]3CC[C@@H]3O)c2=O)nc2c(C(=O)N[C@@H]3CCC[C@@H](OC)C3)cnn12` [Compound I-98, 5-((1-((1R,2S)-2-Hydroxycyclobutyl)-2-oxo-1,2-dihydropyridin-3-yl)amino)-N-((trans-1,3)-3-methoxycyclohexyl)-7-(methylamino)pyrazolo[1,5-a]pyrimidine-3-carboxamide], the Kd was under 0.2 nM.

Regarding `CNc1cc(Nc2cccn([C@@H]3CC[C@@H]3O)c2=O)nc2c(C(=O)N[C@@H]3CCC[C@@H](OC)C3)cnn12` [Compound I-99, 5-((1-((1R,2S)-2-Hydroxycyclobutyl)-2-oxo-1,2-dihydropyridin-3-yl)amino)-N-((1R,3R)-3-methoxycyclohexyl)-7-(methylamino)pyrazolo[1,5-a]pyrimidine-3-carboxamide], the Kd was 0.2 to 1 nM. As for `CNc1cc(Nc2cccn([C@@H]3CC[C@@H]3O)c2=O)nc2c(C(=O)N[C@H]3CCC[C@H](OC)C3)cnn12` [Compound I-100, 5-((1-((1R,2S)-2-Hydroxycyclobutyl)-2-oxo-1,2-dihydropyridin-3-yl)amino)-N-((1S,3S)-3-methoxycyclohexyl)-7-(methylamino)pyrazolo[1,5-a]pyrimidine-3-carboxamide], the figure is 0.2 to 1 nM; as for `CNc1cc(Nc2cccn([C@H]3CC[C@H]3O)c2=O)nc2c(C(=O)NC3CCC[C@@H](OC)C3)cnn12` (stereo partly drawn) [Compound I-103, 5-((1-((1S,2R)-2-Hydroxycyclobutyl)-2-oxo-1,2-dihydropyridin-3-yl)amino)-N-((trans-1,3)-3-methoxycyclohexyl)-7-(methylamino)pyrazolo[1,5-a]pyrimidine-3-carboxamide], 1 to 10 nM. Turning to `CNc1cc(Nc2cccn([C@H]3CC[C@H]3O)c2=O)nc2c(C(=O)N[C@@H]3CCC[C@@H](OC)C3)cnn12` [Compound I-104, 5-((1-((1S,2R)-2-Hydroxycyclobutyl)-2-oxo-1,2-dihydropyridin-3-yl)amino)-N-((1R,3R)-3-methoxycyclohexyl)-7-(methylamino)pyrazolo[1,5-a]pyrimidine-3-carboxamide], the Kd was 1 to 10 nM.

With `CNc1cc(Nc2cccn([C@H]3CC[C@H]3O)c2=O)nc2c(C(=O)N[C@H]3CCC[C@H](OC)C3)cnn12` [Compound I-105, 5-((1-((1S,2R)-2-Hydroxycyclobutyl)-2-oxo-1,2-dihydropyridin-3-yl)amino)-N-((1S,3S)-3-methoxycyclohexyl)-7-(methylamino)pyrazolo[1,5-a]pyrimidine-3-carboxamide], the equilibrium dissociation constant (Kd) was 1 to 10 nM. As for `CNc1cc(Nc2cccn(-c3coc(C)n3)c2=O)nc2c(C(=O)NC3CC3)cnn12` [Compound I-121], the figure is over 10 nM; as for `CNc1cc(Nc2cccn(-c3coc(C)n3)c2=O)nc2c(C(=O)N[C@@H]3C[C@@H]3F)cnn12` [Compound I-126], over 10 nM; as for `CNc1cc(Nc2cccn(-c3ccccn3)c2=O)nc2c(C(=O)N[C@H]3C[C@H]3F)cnn12` [Compound I-127], under 0.2 nM.

As to `CNc1cc(Nc2cccn([C@H]3C[C@H](F)C3)c2=O)nc2c(C(=O)N[C@@H]3C[C@H]3OC)cnn12` [Compound I-137], the Kd was under 0.2 nM. Next, `CNc1cc(Nc2cccn(C3COC3)c2=O)nc2c(C(=O)N[C@H]3CC[C@H]3F)cnn12` [Compound I-161]: under 0.2 nM; `CNc1cc(Nc2cccn(-c3ocnc3C)c2=O)nc2c(C(=O)N[C@@H]3CC[C@H]3F)cnn12` [Compound I-187]: under 0.2 nM. As for `CO[C@@H]1CCC1NC(=O)c1cnn2c(N)cc(Nc3cccn(-c4ccccn4)c3=O)nc12` (stereo partly drawn) [Compound I-245, 7-Amino-N-((trans-1,2)-2-methoxycyclobutyl)-5-((2-oxo-2H-[1,2′-bipyridin]-3-yl)amino)pyrazolo[1,5-a]pyrimidine-3-carboxamide], the figure is under 0.2 nM.

As for `CNc1cc(Nc2cccn([C@H]3[C@@H]4COC[C@@H]43)c2=O)nc2c(C(=O)N[C@@H]3CCC3(F)F)cnn12` [Compound I-308], the Kd was under 0.2 nM. As for `CNc1cc(Nc2cccn(C(C)C)c2=O)nc2c(C(=O)N[C@H]3CC[C@]3(C)O)cnn12` [Compound I-340], the figure is under 0.2 nM; as for `CNc1cc(Nc2ccc(F)n(-c3ccccn3)c2=O)nc2c(C(=O)NC3CC3)cnn12` [Compound I-473], over 10 nM; as for `CNc1cc(Nc2ccc(F)n(-c3ccccn3)c2=O)nc2c(C(=O)N[C@@H]3C[C@@H]3F)cnn12` [Compound I-474, 5-((6-Fluoro-2-oxo-2H-[1,2′-bipyridin]-3-yl)amino)-N-((1R,2S)-2-fluorocyclopropyl)-7-(methylamino)pyrazolo[1,5-a]pyrimidine-3-carboxamide], 1 to 10 nM.

`CNc1ccc(-c2cc(NC)n3ncc(C(=O)NC4CC4)c3n2)n2ccnc12` [Compound I-478, N-Cyclopropyl-7-(methylamino)-5-(8-(methylamino)imidazo[1,2-a]pyridin-5-yl)pyrazolo[1,5-a]pyrimidine-3-carboxamide]: the Kd lay within 0.2 to 1 nM. As for `CNc1ccc(-c2cc(NC)n3ncc(C(=O)N[C@H]4CC[C@@H]4OC)c3n2)n2ccnc12` [Compound I-489], the figure is over 10 nM; as for `CNc1ccc(-c2cc(NC)n3ncc(C(=O)NC4CCC4(F)F)c3n2)n2ccnc12` (stereo not drawn) [Compound I-491], under 0.2 nM; as for `CNc1cc(-c2cn([C@H]3COC[C@@H]3O)c3ncccc23)nc2c(C(=O)NC3CC3)cnn12` [Compound I-496], under 0.2 nM. As for `CNc1cc(-c2cn([C@@H]3COC[C@H]3O)c3ncccc23)nc2c(C(=O)NC3CC3)cnn12` [Compound I-497], the figure is under 0.2 nM; as for `CNc1cc(-c2cn([C@H]3CCOC[C@@H]3O)c3ncccc23)nc2c(C(=O)NC3CC3)cnn12` [Compound I-498], under 0.2 nM. Next, `CNc1cc(-c2cn([C@@H]3CCOC[C@H]3O)c3ncccc23)nc2c(C(=O)NC3CC3)cnn12` [Compound I-499]: under 0.2 nM; `CNc1cc(-c2cn([C@H]3COC[C@@H]3O)c3ncccc23)nc2c(C(=O)N[C@@H]3C[C@@H]3F)cnn12` [Compound I-501]: under 0.2 nM; `CNc1cc(-c2cn([C@@H]3COC[C@H]3OC)c3ncccc23)nc2c(C(=O)N[C@@H]3C[C@@H]3F)cnn12` [Compound I-503]: under 0.2 nM. For `CNc1cc(-c2cn([C@H]3COC[C@@H]3OC)c3ncccc23)nc2c(C(=O)N[C@@H]3C[C@@H]3F)cnn12` [Compound I-504], the Kd is under 0.2 nM.

With `CNc1cc(-c2cn([C@@H]3CCOC[C@H]3O)c3ncccc23)nc2c(C(=O)N[C@@H]3C[C@@H]3F)cnn12` [Compound I-505], the Kd is under 0.2 nM. As for `CNc1cc(-c2cn([C@H]3CCOC[C@@H]3O)c3ncccc23)nc2c(C(=O)N[C@@H]3C[C@@H]3F)cnn12` [Compound I-506], the figure is under 0.2 nM; as for `CNc1cc(-c2cn(C3COC3)c3ncccc23)nc2c(C(=O)N[C@@H]3CC[C@H]3F)cnn12` [Compound I-509], under 0.2 nM; as for `CNc1cc(-c2cn(C3CN(C)C3)c3ncccc23)nc2c(C(=O)NC3COC[C@H]3O)cnn12` (stereo partly drawn) [Compound I-714], over 10 nM.

In the case of `O=C(NC1CC1)c1cnn2c3c(c(Nc4cccn(C5CCOCC5)c4=O)nc12)OCCN3` [Compound I-748], the Kd is under 0.2 nM.

Take `O=C(NC1CC1)c1cnn2c3c(c(Nc4cccc5ocnc45)nc12)OCCN3` [Compound I-749]: the Kd is under 0.2 nM. As for `O=C(N[C@@H]1C[C@@H]1F)c1cnn2c3c(c(Nc4cccn(C5CCOCC5)c4=O)nc12)OCCN3` [Compound I-751, N-((1R,2S)-2-Fluorocyclopropyl)-5-((2-oxo-1-(tetrahydro-2H-pyran-4-yl)-1,2-dihydropyridin-3-yl)amino)-2,3-dihydro-1H-pyrazolo[5′,1′:2,3]pyrimido[5,4-b][1,4]oxazine-7-carboxamide], the Kd is under 0.2 nM. As for `CC(C)n1cc(-c2nc3c(C(=O)N[C@@H]4CC[C@@H]4O)cnn3c3c2OCCN3)c2cccnc21` [Compound I-755], the figure is under 0.2 nM.

Values taken from patent publication US11414431B2, “Substituted pyrazolo[1,5-a]pyrimidines as TYK2 inhibitors” (Nimbus Lakshmi, Inc., priority 2018, dated 2022).
